Results: US4770998A, “Biochemical assay of aldehydes” (Mobil Oil Corporation, priority 1985, dated 1988)

Assays:
[1] = tested on: Mouse lymphoma L5178Y cells (clone 3.7.2C); assay: Mouse lymphoma mutagenicity assay (TK locus) with total growth, with S-9 activation, with FDH plus NAD; settings: 2.5 and 5.0 ug/ml
Protocol: Mouse lymphoma L5178Y cells (clone 3.7.2C) ATCC CRL 9518 are preferred since these indicator cells are useful for mutagenicity as well as for toxicity assay.
The L5178Y mouse lymphoma indicator cells (clone 3.7.2C) are stored in liquid nitrogen. Cultures are thawed and are maintained in logarithmic growth by serial subculturing for up to six weeks. Cultures are grown at 37° C. in either a shaker incubator or a roller-harvester incubator. […] Cultures are cleansed on a weekly basis, as described by Clive et al. (1979), to reduce the frequency of spontaneous TK-/- mutants and thus maintain minimum mutant frequencies in the negative controls.
The medium for suspension culture of the cells is Fischer's medium (for leukemic mice) supplemented with heat-inactivated horse serum (10%, v/v), sodium pyruvate (1 mM) and Pluronic (0.1%, w/v). […]
Logarithmically growing cultures of recently cleansed lymphoma cells are counted and adjusted to 1×10^6 cells/ml for use in the assays. […]
An expression period of 2 days is used to allow recovery, growth and expression of the TK-/- phenotype. Cell population densities will be determined on Day 1 (approximately 24 hours after treatment) and is adjusted to 3×10^5 cells/ml to maintain optimal growth rates. Cell population densities are then determined on Day 2 (approximately 44 hours after treatment), and appropriated cultures selected for mutant analysis. […]

[2] = tested on: Mouse lymphoma L5178Y cells (clone 3.7.2C); assay: Mouse lymphoma mutagenicity assay (TK locus) with total growth, nonactivated (without S-9), with and without FDH plus NAD; assay type: cell-based
Protocol: All tests preferably are performed in duplicate.
In this example the dose-dependent mutagenic effect of formaldehyde on lymphoma cultures, both with and without FDH plus NAD, was investigated in the absence of S-9 activation.

[3] = known stoichiometric release; cited from earlier work

Cc1c2ccccc2c(C)c2c1ccc1ccccc12 [DMBA, 7,12-dimethylbenz[a]anthracene]
reduction of mutagenicity with addition of FDH plus NAD [1]: No reduction of toxicity or mutagencity | reduction of toxicity with addition of FDH plus NAD [1]: No reduction of toxicity or mutagencity

CCOS(C)(=O)=O [EMS, ethylmethane sulfonate]
reduction of mutagenicity with addition of FDH plus NAD ([2]; 0.5 and 1.0 ul/ml, without S-9): No reduction of toxicity or mutagenicity | reduction of toxicity with addition of FDH plus NAD ([2]; 0.5 and 1.0 ul/ml, without S-9): No reduction of toxicity or mutagenicity

O=[N+]([O-])C(CO)(CO)CO [TNM, Tris-(hydroxymethyl) nitromethane]
formaldehyde released [3]: 3 mols of formaldehyde per mol of TNM | total growth / toxicity [2]: Dose dependent increases in toxicity and mutagenicity | toxicity with FDH and NAD [2]: absent | mutagenicity with FDH and NAD ([2]; supplemented with FDH and NAD, without S-9): absent | mutant frequency / mutagenicity ([2]; without FDH/NAD, without S-9): Dose dependent increases in toxicity and mutagenicity
